Data as given in US7553864B2, “Compounds for the treatment of inflammatory disorders and microbial diseases” (Schering Corporation, priority 2005, dated 2009).

System: LpxC enzyme
Test: LpxC enzyme assay (RapidFire high-throughput mass spectrometry)
Type: biochemical
Details: concentration 0.10 (unit not given)
Method: The standard LpxC assay consists of 0.2 nM LpxC enzyme, 1.0 μM UDP-3-O—(R-3-hydroxymyristoyl)-N-acetylglucosamine, and test compound, in assay buffer and 2% DMSO. Assay buffer is comprised of 25 mM HEPES, pH 7.3, 150 mM NaCl, 2.0 mM DTT, and 0.01% BSA. The enzyme reaction is carried out in a 96-well assay plate, in a final volume of 102 μL. Solutions of test compounds are prepared in 100% DMSO. Reaction additions, in order, are (1) 2.0 μL compound solution, (2) 80 μL of assay buffer, (3) 10 μL of 10 μM UDP-3-O—(R-3-hydroxymyristoyl)-N-acetylglucosamine (in assay buffer) and, (4) 10 μL of LpxC enzyme (20 nM in assay buffer) to initiate the reaction. In positive control reactions, addition (1) has 2.0 μL of 100% DMSO (without compound); these reactions are used as the total signal (TSB) value. Reactions are incubated at room temperature for 60 minutes when 10 μL of 1 N HCl is added to stop the reaction. The plate is shaken by hand for 10 seconds to ensure complete quenching. Assay plates are sealed with foil tape, and stored at −80° C. for 24-48 hr prior to analysis.
The concentrations of substrate and product in the reaction mixtures are determined with BioTrove's proprietary RapidFire™ high-throughput mass spectrometry (HTMS). Assay mixtures are partially purified with reverse phase chromatography, where they are washed with water containing 5 mM ammonium formate and eluted onto the mass spectrometer in 80% acetonitrile, 20% water, and 5 mM ammonium formate. The mass spectrometry peak areas of the substrate and product are measured to determine the concentration of these analytes. The assay signal is the percentage of substrate that is converted to product. Percent inhibition, % I, in test samples is determined from the following equation: […]

SMILES	LpxC enzyme assay rating (% inhibition at indicated concentrations)
CN(C)C(=O)[C@H](O)[C@@H](O)C(=O)Nc1ccc(-c2ccccc2)cc1 [Compound 45]	C (less than 10% inhibition)
CN(C)C(=O)[C@H](O)[C@@H](O)C(=O)Nc1ccc(-c2ccc(C(F)(F)F)cc2)cc1 [Compound 46]	C (less than 10% inhibition)
CN(C)C(=O)[C@H](O)[C@@H](O)C(=O)N1CCN(c2ccc(-c3ccccc3)cc2)CC1 [Compound 47]	B (10-30% inhibition)
CCCCc1ccc(NC(=O)[C@H](O)[C@@H](O)C(=O)N(C)C)cc1 [Compound 48]	B (10-30% inhibition)
CCCc1ccc(NC(=O)[C@H](O)[C@@H](O)C(=O)N(C)C)cc1 [Compound 49]	C (less than 10% inhibition)

Same assay, conditions: concentration 0.20 (unit not given)

SMILES	LpxC enzyme assay rating (% inhibition at indicated concentrations)
CN(C)C(=O)[C@H](O)[C@@H](O)C(=O)Nc1ccc(-c2ccccc2)cc1 [Compound 45]	C (less than 10% inhibition)
CN(C)C(=O)[C@H](O)[C@@H](O)C(=O)Nc1ccc(-c2ccc(C(F)(F)F)cc2)cc1 [Compound 46]	C (less than 10% inhibition)
CN(C)C(=O)[C@H](O)[C@@H](O)C(=O)N1CCN(c2ccc(-c3ccccc3)cc2)CC1 [Compound 47]	B (10-30% inhibition)
CCCCc1ccc(NC(=O)[C@H](O)[C@@H](O)C(=O)N(C)C)cc1 [Compound 48]	C (less than 10% inhibition)
CCCc1ccc(NC(=O)[C@H](O)[C@@H](O)C(=O)N(C)C)cc1 [Compound 49]	C (less than 10% inhibition)

Same assay, conditions: concentration 0.39 (unit not given)

SMILES	LpxC enzyme assay rating (% inhibition at indicated concentrations)
CN(C)C(=O)[C@H](O)[C@@H](O)C(=O)Nc1ccc(-c2ccccc2)cc1 [Compound 45]	C (less than 10% inhibition)
CN(C)C(=O)[C@H](O)[C@@H](O)C(=O)Nc1ccc(-c2ccc(C(F)(F)F)cc2)cc1 [Compound 46]	C (less than 10% inhibition)
CN(C)C(=O)[C@H](O)[C@@H](O)C(=O)N1CCN(c2ccc(-c3ccccc3)cc2)CC1 [Compound 47]	C (less than 10% inhibition)
CCCCc1ccc(NC(=O)[C@H](O)[C@@H](O)C(=O)N(C)C)cc1 [Compound 48]	C (less than 10% inhibition)
CCCc1ccc(NC(=O)[C@H](O)[C@@H](O)C(=O)N(C)C)cc1 [Compound 49]	B (10-30% inhibition)

Same assay, conditions: concentration 0.78 (unit not given)

SMILES	LpxC enzyme assay rating (% inhibition at indicated concentrations)
CN(C)C(=O)[C@H](O)[C@@H](O)C(=O)Nc1ccc(-c2ccccc2)cc1 [Compound 45]	C (less than 10% inhibition)
CN(C)C(=O)[C@H](O)[C@@H](O)C(=O)Nc1ccc(-c2ccc(C(F)(F)F)cc2)cc1 [Compound 46]	C (less than 10% inhibition)
CN(C)C(=O)[C@H](O)[C@@H](O)C(=O)N1CCN(c2ccc(-c3ccccc3)cc2)CC1 [Compound 47]	B (10-30% inhibition)
CCCCc1ccc(NC(=O)[C@H](O)[C@@H](O)C(=O)N(C)C)cc1 [Compound 48]	C (less than 10% inhibition)
CCCc1ccc(NC(=O)[C@H](O)[C@@H](O)C(=O)N(C)C)cc1 [Compound 49]	C (less than 10% inhibition)

Same assay, conditions: concentration 1.56 (unit not given)

SMILES	LpxC enzyme assay rating (% inhibition at indicated concentrations)
CN(C)C(=O)[C@H](O)[C@@H](O)C(=O)Nc1ccc(-c2ccccc2)cc1 [Compound 45]	C (less than 10% inhibition)
CN(C)C(=O)[C@H](O)[C@@H](O)C(=O)Nc1ccc(-c2ccc(C(F)(F)F)cc2)cc1 [Compound 46]	C (less than 10% inhibition)
CN(C)C(=O)[C@H](O)[C@@H](O)C(=O)N1CCN(c2ccc(-c3ccccc3)cc2)CC1 [Compound 47]	C (less than 10% inhibition)
CCCCc1ccc(NC(=O)[C@H](O)[C@@H](O)C(=O)N(C)C)cc1 [Compound 48]	C (less than 10% inhibition)
CCCc1ccc(NC(=O)[C@H](O)[C@@H](O)C(=O)N(C)C)cc1 [Compound 49]	C (less than 10% inhibition)

Same assay, conditions: concentration 3.13 (unit not given)

SMILES	LpxC enzyme assay rating (% inhibition at indicated concentrations)
CN(C)C(=O)[C@H](O)[C@@H](O)C(=O)Nc1ccc(-c2ccccc2)cc1 [Compound 45]	C (less than 10% inhibition)
CN(C)C(=O)[C@H](O)[C@@H](O)C(=O)Nc1ccc(-c2ccc(C(F)(F)F)cc2)cc1 [Compound 46]	C (less than 10% inhibition)
CN(C)C(=O)[C@H](O)[C@@H](O)C(=O)N1CCN(c2ccc(-c3ccccc3)cc2)CC1 [Compound 47]	B (10-30% inhibition)
CCCCc1ccc(NC(=O)[C@H](O)[C@@H](O)C(=O)N(C)C)cc1 [Compound 48]	B (10-30% inhibition)
CCCc1ccc(NC(=O)[C@H](O)[C@@H](O)C(=O)N(C)C)cc1 [Compound 49]	C (less than 10% inhibition)

Same assay, conditions: concentration 6.25 (unit not given)

SMILES	LpxC enzyme assay rating (% inhibition at indicated concentrations)
CN(C)C(=O)[C@H](O)[C@@H](O)C(=O)Nc1ccc(-c2ccccc2)cc1 [Compound 45]	C (less than 10% inhibition)
CN(C)C(=O)[C@H](O)[C@@H](O)C(=O)Nc1ccc(-c2ccc(C(F)(F)F)cc2)cc1 [Compound 46]	C (less than 10% inhibition)
CN(C)C(=O)[C@H](O)[C@@H](O)C(=O)N1CCN(c2ccc(-c3ccccc3)cc2)CC1 [Compound 47]	B (10-30% inhibition)
CCCCc1ccc(NC(=O)[C@H](O)[C@@H](O)C(=O)N(C)C)cc1 [Compound 48]	C (less than 10% inhibition)
CCCc1ccc(NC(=O)[C@H](O)[C@@H](O)C(=O)N(C)C)cc1 [Compound 49]	C (less than 10% inhibition)

Same assay, conditions: concentration 12.50 (unit not given)

SMILES	LpxC enzyme assay rating (% inhibition at indicated concentrations)
CN(C)C(=O)[C@H](O)[C@@H](O)C(=O)Nc1ccc(-c2ccccc2)cc1 [Compound 45]	C (less than 10% inhibition)
CN(C)C(=O)[C@H](O)[C@@H](O)C(=O)Nc1ccc(-c2ccc(C(F)(F)F)cc2)cc1 [Compound 46]	B (10-30% inhibition)
CN(C)C(=O)[C@H](O)[C@@H](O)C(=O)N1CCN(c2ccc(-c3ccccc3)cc2)CC1 [Compound 47]	B (10-30% inhibition)
CCCCc1ccc(NC(=O)[C@H](O)[C@@H](O)C(=O)N(C)C)cc1 [Compound 48]	B (10-30% inhibition)
CCCc1ccc(NC(=O)[C@H](O)[C@@H](O)C(=O)N(C)C)cc1 [Compound 49]	C (less than 10% inhibition)

Same assay, conditions: concentration 25 (unit not given)

SMILES	LpxC enzyme assay rating (% inhibition at indicated concentrations)
CN(C)C(=O)[C@H](O)[C@@H](O)C(=O)Nc1ccc(-c2ccccc2)cc1 [Compound 45]	C (less than 10% inhibition)
CN(C)C(=O)[C@H](O)[C@@H](O)C(=O)Nc1ccc(-c2ccc(C(F)(F)F)cc2)cc1 [Compound 46]	B (10-30% inhibition)
CN(C)C(=O)[C@H](O)[C@@H](O)C(=O)N1CCN(c2ccc(-c3ccccc3)cc2)CC1 [Compound 47]	C (less than 10% inhibition)
CCCCc1ccc(NC(=O)[C@H](O)[C@@H](O)C(=O)N(C)C)cc1 [Compound 48]	C (less than 10% inhibition)
CCCc1ccc(NC(=O)[C@H](O)[C@@H](O)C(=O)N(C)C)cc1 [Compound 49]	B (10-30% inhibition)

Same assay, conditions: concentration 50 (unit not given)

SMILES	LpxC enzyme assay rating (% inhibition at indicated concentrations)
CN(C)C(=O)[C@H](O)[C@@H](O)C(=O)Nc1ccc(-c2ccccc2)cc1 [Compound 45]	C (less than 10% inhibition)
CN(C)C(=O)[C@H](O)[C@@H](O)C(=O)Nc1ccc(-c2ccc(C(F)(F)F)cc2)cc1 [Compound 46]	A (greater than 30% inhibition)
CN(C)C(=O)[C@H](O)[C@@H](O)C(=O)N1CCN(c2ccc(-c3ccccc3)cc2)CC1 [Compound 47]	B (10-30% inhibition)
CCCCc1ccc(NC(=O)[C@H](O)[C@@H](O)C(=O)N(C)C)cc1 [Compound 48]	B (10-30% inhibition)
CCCc1ccc(NC(=O)[C@H](O)[C@@H](O)C(=O)N(C)C)cc1 [Compound 49]	C (less than 10% inhibition)
